{"source": "patent US5216024A", "about": "“Cell growth inhibitors and methods of treating cancer and cell proliferative diseases” (Baylor College of Medicine, priority 1988, dated 1993)", "key": {"[1]": {"test_system": "estradiol stimulation of uterine growth (rat uterus)", "assay": "Uterotropic assay: block of estradiol stimulation of uterine growth in immature female rats", "type": "in vivo", "conditions": "for GROWTH INHIBITION (%): 10 μg compound, block of estradiol stimulation in the rat uterotropic assay; for block of estradiol stimulation of uterine growth (in words): immature rat, FIGS. 14, 15", "protocol": "The rat uterus is exquisitively sensitive to estrogen, and this hormone stimulates uterine cellular hypertrophy, hyperplasia and DNA synthesis within 24 hours following a single injection. Estradiol stimulation of nuclear Type II sites is a prerequisite for these responses. This assay includes injecting immature female rats with saline-ethanol vehicle, estradiol-17β and the test compound of interest. Control rats were injected only with saline-ethanol vehicle and estradiol-17β. The rats were sacrificed 24 hours later and the uterine wet and dry weights were determined. The wet and dry weight measurements are well defined biochemical end points of estrogen action and are a direct index of changes in cell proliferation and DNA synthesis.\nestradiol stimulation in the rat uterotropic assay."}, "[2]": {"test_system": "cell growth and proliferation in normal and malignant cells", "assay": "Cell growth / tumor proliferation inhibition (general statement)", "type": "cell-based"}, "[3]": {"test_system": "esterase", "assay": "Stability to esterase cleavage", "type": "in vitro ADME"}, "[4]": {"test_system": "nuclear Type II estrogen binding sites", "assay": "Inhibition assay: [3H]estradiol binding to nuclear Type II sites (uterine nuclei from estrogen-implanted ovariectomized rats)", "set-up": "species or system rat", "conditions": "for IC50: Table I, read-out: TYPE II INHIBITION: concentration (nM) times 10^-2 to inhibit nuclear Type II binding sites by 50%", "protocol": "Tissue was dissected from host animals, weighed, rinsed in saline, and homogenized in 10 mM Tris-1.5 mM EDTA, by approximately four 30-sec bursts in a Sorval Omnimixer with intermittent cooling for about 5 min. This crude homogenate was transferred to a Kontes ground glass homogenizer and further homogenized with intermittent cooling until no tissue aggregates were visible. It was imperative that the homogenate be kept cold, about 4° C. through all homogenization steps. The final homogenate was centrifuged at 800×g for approximately 20 min to obtain the crude nuclear pellet, which was then washed by gentle resuspension in a Dounce homogenizer and then centrifuged at 800×g for approximately 7 min. The final washed nuclear pellet was resuspended in 10 mM Tris-1.5 mM EDTA in a concentration ranging from 5 to 50 mg of fresh tissue equivalents/ml. By the term \"fresh tissue equivalent\" is meant the amount of material which represents the initial concentration in the fresh uterine tissue.\nTo assess total and nonspecific binding, aliquots of the nuclear suspension were incubated at 37° C. for 30 min with various concentrations ranging from 2 to 40 nM of [^3 H]estradiol with and without a large molar excess of diethylstilbestrol. The diethylstibestrol concentration ranged from 0.6 to 12.0 μM. Following incubation, the nuclear pellets were resuspended in about 1 ml of 10 mM Tris-1.5 mM EDTA buffer and centrifuged at 800×g for about 7 min. The pellet was extracted with 1 ml of ethanol at about 30° C. for about 30 min, and counted in 4 ml of Liquifluor. Specific binding was determined by substraction of nonspecific binding; i.e., not competable by diethylstilbestrol from the total quantity of [^3 H]estradiol bound. Results were expressed as sites/cell, assuming 8 pg of DNA/cell nucleus and that each binding site binds one molecule of [^3 H]estradiol.\nIn order to assess the levels of this inhibitor activity in various tissue cytosols and LH-20 column chromatography fractions from these cytosols, the following inhibition assay was used. Uterine nuclei were prepared from estrogen-implanted, adult-ovariectomizedrats. The washed nuclear pellet was diluted to 10 mg of fresh uterine equivalents/ml. At this concentration the effects of the endogenous inhibitor were minimal, and nuclear Type II sites bound maximum quantities of [^3 H]estradiol. Aliquots of these nuclei and the inhibitor sample were incubated at about 4° C. for approximately 60 min in the presence of 40 nM of [^3 H]estradiol with and without 12 μM diethylstilbestrol. Under these conditions, nuclear Type II sites were quantitatively measured without interference from Type I sites. The nuclear pellets were resuspended in 1 ml of 10 mM Tris-1.5 mM EDTA and centrifuged, ethanol extracted, and counted. The results were expressed as the percentage of [^3 H]estradiol bound as compared to the buffer control, or as the percentage of inhibition where 100% bound was 0% inhibition and was equivalent to approximately 45,000 cpm.\nThus, more nuclear Type II sites are measured in dilute than in concentrated nuclei. […] The uterine nuclei were prepared as previously described in Markaverich, B. M. et al., J. Biol. Chem. 258:11663-11671 (1983), the disclosure of which is herein incorporated by reference. Briefly, uterine nuclei after preparation were diluted in 10 mM Tris, 1.5 mM EDTA buffer in final volumes equivalent to 10, 20 or 40 mg fresh uterine equivalents per ml, and assayed for estrogen binding sites by [^3 H]estradiol exchange at 37° C. for 30 minutes. Specific binding was determined by subtraction of non-specific binding, i.e., non-competable with 300-fold excess diethylstilbestrol, from the total quantity of [^3 H]estradiol bound. […] Briefly, acid-precipitated, boiled cytosol from rat uterus, mouse mammary tumor and normal mouse mammary gland was diluted as shown on FIG. 2 and evaluated for inhibitor activity. […]"}, "[5]": {"test_system": "MCF-7 human breast cancer cells", "assay": "MCF-7 cancer cell assay", "type": "cell-based", "conditions": "FIG. 12; 1-10 μg/ml, 6 days", "text": "To assay for tumor growth sensitivity the MCF-7 human breast cancer cell line in tissue culture was used. One skilled in the art will recognize that this is an excellent model system to assess the effects of hormones and drugs on human cancer cell growth and proliferation. The MCF-7 cells have both Type I and nuclear Type II estrogen receptor sites and respond in a proliferative fashion to estrogenic hormones. Furthermore, they are inhibited by well-known anti-estrogens such as Tamoxifen. The MCF-7 cells were plated at 5×10^5 cells/dish in 30 mm petri dishes and grown in Dulbecco's Modified Eagles Medium containing about 10% charcoal stripped fetal bovine serum for approximately 48 hours. During this interval, the cells attached to the plastic dishes and then underwent exponential growth with a cell-doubling time of approximately 24 hours. The plated cells were allowed to attach for approximately 48 hours and the medium was replaced (\"day zero\"). The cells were allowed to grow exponentially for about 6 days. […] On day 6 the cells were harvested, counted on a hemocytometer and DNA content per dish was determined by the Burton assay (Burton, K., Biochem. J. 62:315-323, 1956). Results are expressed as cells/dish or DNA content (μg/dish) at 6 days following treatment. […]"}, "[6]": {"test_system": "MCF-7 human breast cancer cells", "conditions": "general knowledge statement; cited from earlier work"}, "[7]": {"test_system": "estradiol stimulation of uterine growth (rat uterus)", "conditions": "background statement; cited from earlier work"}, "[8]": {"test_system": "malignant (tumor) cells", "assay": "Metabolism / inactivation by malignant cells", "type": "in vitro ADME"}, "[9]": {"conditions": "listed as methyl p-hydroxyphenyllactate"}}, "note": "Entries after “also recorded” stand apart in the source; their conditions may differ. Where two headings read alike, the source gives them in different places."}
{"smiles": "CC(=O)CCc1ccc(O)cc1", "note": "[1-(4-hydroxyphenyl)-3-butanone]", "values": [{"measurement": "GROWTH INHIBITION (%)", "setting": "[1]", "value": 96, "unit": "%"}, {"measurement": "block of estradiol stimulation of uterine growth (in words)", "setting": "[1]", "value": "antitumor proliferative activity in the uterotropic assay; also recorded: blocks estradiol stimulation of uterine growth when injected into immature rats"}, {"measurement": "inhibition in culture and in vivo relative to MeHPLA (in words)", "setting": "[2]; culture and in vivo", "value": "a better inhibitor in culture and in vivo"}, {"measurement": "stability (in words)", "setting": "[3]", "value": "not subject to the esterase cleavage; also recorded: more stable"}, {"measurement": "binding to / inhibition of nuclear Type II sites (in words)", "setting": "[4]", "value": "bind to Type II sites; also recorded: binds to the nuclear Type II sites with a high affinity"}, {"measurement": "IC50", "setting": "[4]", "value": 200, "unit": "nM"}]}
{"smiles": "CCC(=O)CCc1ccc(O)cc1", "note": "[1-(4-hydroxyphenyl)-3-pentanone]", "values": [{"measurement": "block of estradiol stimulation of uterine growth (in words)", "setting": "[1]", "value": "antitumor proliferative activity in the uterotropic assay"}, {"measurement": "binding to / inhibition of nuclear Type II sites (in words)", "setting": "[4]", "value": "bind to Type II sites"}]}
{"smiles": "O=C(O)C(O)Cc1ccc(O)cc1", "note": "(centres unmarked) [3-(4-hydroxyphenyl)-2-hydroxypropionic acid, reference compound]", "values": [{"measurement": "GROWTH INHIBITION (%)", "setting": "[1]", "value": 0, "unit": "%"}, {"measurement": "block of estradiol stimulation of uterine growth (in words)", "setting": "[1]; listed as hydroxyphenyllactic acid", "value": "higher doses of hydroxyphenyllactic acid showed some partial antagonism; also recorded: but not hydroxyphenyllactic acid"}, {"measurement": "inhibition of MCF-7 human breast cancer cells", "setting": "[5]", "value": "did not"}, {"measurement": "cell growth inhibition / antitumor activity (in words)", "setting": "[2]", "value": "inhibits the cell growth much less effectively"}, {"measurement": "binding to / inhibition of nuclear Type II sites (in words)", "setting": "[4]", "value": "low binding affinity for nuclear Type II sites"}, {"measurement": "IC50", "setting": "[4]", "value": 8000, "unit": "nM"}, {"measurement": "fold lower affinity for nuclear Type II sites than methyl p-hydroxyphenyllactate", "setting": "[4]; vs MeHPLA", "value": 20, "unit": "fold"}]}
{"smiles": "CC/C(=C(\\c1ccccc1)c1ccc(OCCN(C)C)cc1)c1ccccc1", "note": "[Tamoxifen]", "values": [{"measurement": "inhibition of MCF-7 cells by known anti-estrogens", "setting": "[6]", "value": "inhibited"}]}
{"smiles": "CCN(CC)CCOc1ccc(C(=C(Cl)c2ccccc2)c2ccccc2)cc1", "note": "[clomiphene]", "values": [{"measurement": "inhibition of nuclear Type II sites associated with antagonism of uterotropic responses to estrogen", "setting": "[7]", "value": "associated with antagonism of uterotropic responses to estrogen"}]}
{"smiles": "C[C@@H]1C[C@H]2[C@@H]3CCC4=CC(=O)C=C[C@]4(C)[C@@]3(F)[C@@H](O)C[C@]2(C)[C@@]1(O)C(=O)CO", "note": "[dexamethasone]", "values": [{"measurement": "inhibition of nuclear Type II sites associated with antagonism of uterotropic responses to estrogen", "setting": "[7]", "value": "associated with antagonism of uterotropic responses to estrogen"}]}
{"smiles": "COC(=O)C=Cc1ccc(O)c(O)c1", "note": "[methyl 3-(3,4-dihydroxyphenyl)-2-propenoate]", "values": [{"measurement": "GROWTH INHIBITION (%)", "setting": "[1]", "value": 70, "unit": "%"}, {"measurement": "IC50", "setting": "[4]", "value": 100, "unit": "nM"}]}
{"smiles": "COC(=O)C=Cc1ccc(O)c(OC)c1", "note": "[methyl 3-(4-hydroxy-3-methoxyphenyl)-2-propenoate]", "values": [{"measurement": "GROWTH INHIBITION (%)", "setting": "[1]", "value": 56, "unit": "%"}, {"measurement": "IC50", "setting": "[4]", "value": 600, "unit": "nM"}]}
{"smiles": "COC(=O)C(O)Cc1ccc(O)cc1", "note": "(centres unmarked) [methyl 3-(4-hydroxyphenyl)-2-hydroxypropionate]", "values": [{"measurement": "GROWTH INHIBITION (%)", "setting": "[1]", "value": 90, "unit": "%"}, {"measurement": "block of estradiol stimulation of uterine growth (in words)", "setting": "[1]; listed as MeHPLA", "value": "block estrogen stimulation of normal cell growth such as that in the rat uterus"}, {"measurement": "block of estradiol stimulation of uterine growth (in words)", "setting": "[1]; [9]", "value": "block estradiol stimulation of uterine growth in the immature rat"}, {"measurement": "inhibition of MCF-7 human breast cancer cells", "setting": "[5]", "value": "inhibited MCF-7 breast cancer cells in a similar dose-dependent fashion"}, {"measurement": "cell growth inhibition / antitumor activity (in words)", "setting": "[2]; listed as MeHPLA", "value": "cell growth and proliferation are inhibited; also recorded: cell growth and proliferation of non-malignant tissues are slowed down or stopped"}, {"measurement": "IC50", "setting": "[4]", "value": 80, "unit": "nM"}, {"measurement": "fold more effective in inhibiting [3H]estradiol binding to nuclear Type II sites than the free acid (HPLA)", "setting": "[4]; competition analysis, FIGS. 8 and 9, vs HPLA", "value": "approximately 20 fold"}, {"measurement": "metabolism / inactivation by malignant cells (in words)", "setting": "[8]; listed as MeHPLA", "value": "malignant cells metabolize MeHPLA"}, {"measurement": "metabolism / inactivation by malignant cells (in words)", "setting": "[8]; [9]", "value": "tumor cells have the ability to inactivate methyl p-hydroxyphenyllactate"}]}
{"smiles": "COC(=O)COc1ccc(O)cc1", "note": "[methyl (4-hydroxyphenoxy) acetate, methyl (4-hydroxyphenoxy)acetate]", "values": [{"measurement": "GROWTH INHIBITION (%)", "setting": "[1]", "value": 70, "unit": "%"}, {"measurement": "IC50", "setting": "[4]", "value": 80, "unit": "nM"}]}
{"smiles": "COc1ccc2c(c1)CCC(c1ccccc1)=C2c1ccc(OCCN2CCCC2)cc1", "note": "[nafoxidine]", "values": [{"measurement": "inhibition of nuclear Type II sites associated with antagonism of uterotropic responses to estrogen", "setting": "[7]", "value": "associated with antagonism of uterotropic responses to estrogen"}]}
{"smiles": "CC(=O)[C@H]1CC[C@H]2[C@@H]3CCC4=CC(=O)CC[C@]4(C)[C@H]3CC[C@]12C", "note": "[progesterone]", "values": [{"measurement": "inhibition of nuclear Type II sites associated with antagonism of uterotropic responses to estrogen", "setting": "[7]", "value": "associated with antagonism of uterotropic responses to estrogen"}]}
